We go through 18 compounds from patent US8318769B2, “Substituted sulfonamide compounds” (Gruenethal GmbH, priority 2008, dated 2012).

Assay [1] deals with T1, bradykinin 1 receptor (B1R) of the rat (Rattus norvegicus, UniProt P97583).
T1 construct: expressed in transfected cells
T1 sequence (P97583 1-337): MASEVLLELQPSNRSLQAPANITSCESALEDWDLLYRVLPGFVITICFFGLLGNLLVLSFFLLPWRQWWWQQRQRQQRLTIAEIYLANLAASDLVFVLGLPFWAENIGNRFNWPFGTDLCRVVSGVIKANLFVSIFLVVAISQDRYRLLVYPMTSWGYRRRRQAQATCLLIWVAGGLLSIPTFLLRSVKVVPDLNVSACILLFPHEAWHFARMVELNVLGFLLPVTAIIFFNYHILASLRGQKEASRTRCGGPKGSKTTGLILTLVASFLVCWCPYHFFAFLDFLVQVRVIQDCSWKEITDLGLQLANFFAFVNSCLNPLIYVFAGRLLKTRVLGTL
The experiment in a line: FLIPR Ca2+ assay, B1R antagonism, rat. Type of assay: cell-based. As to conditions: CHO K1 cells with rat B1R gene (rB1R cells), Des-Arg9-bradykinin at EC80, % inhibition compared with the maximum achievable inhibition; for inhibition at 10 µM: CHO-K1, 10 μM test substance, read-out: B1R antagonism, rat [10 μM] % inhibition; for B1R antagonism, rat [10 μM] % inhibition: 10 μM test substance. The procedure, abridged:
(§1)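 Antagonism is given as % of maximum achievable suppression of agonist-evoked Ca2+ influx, measured by Fluo-4 peak fluorescence in FLIPR. Stable hB1R or rB1R CHO K1 lines received 10 μM compound for 10-20 min before EC80 Lys-Des-Arg9-bradykinin (human) or Des-Arg9-bradykinin (rat).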

The target of assay [2] is T2, human bradykinin 1 receptor (B1R) (Homo sapiens, UniProt P46663).
T2 construct: expressed in transfected cells
T2 sequence (P46663 1-353): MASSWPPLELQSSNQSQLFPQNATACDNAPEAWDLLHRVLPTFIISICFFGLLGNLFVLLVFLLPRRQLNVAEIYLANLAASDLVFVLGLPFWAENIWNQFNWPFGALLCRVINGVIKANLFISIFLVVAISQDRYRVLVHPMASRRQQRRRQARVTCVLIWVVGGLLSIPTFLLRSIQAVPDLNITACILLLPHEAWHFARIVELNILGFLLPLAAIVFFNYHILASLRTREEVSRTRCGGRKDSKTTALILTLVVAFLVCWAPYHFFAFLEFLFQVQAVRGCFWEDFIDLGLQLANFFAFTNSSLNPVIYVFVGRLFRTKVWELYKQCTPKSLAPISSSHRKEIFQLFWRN
Kind of assay: FLIPR Ca2+ assay, B1R antagonism, human. Type of assay: cell-based. As to conditions: 10 μM test substance, CHO K1 cells with human B1R gene (hB1R cells), Lys-Des-Arg9-bradykinin at EC80, % inhibition compared with the maximum achievable inhibition; for inhibition at 10 µM: read-out: B1R antagonism, human [10 μM] % inhibition. In a few lines:
as §1

Take `Cc1cccc(Cl)c1S(=O)(=O)N(CCOCC(=O)N1CCC(OCC[N+]2([O-])CCCC2)(c2cccc(F)c2)CC1)C1CC1` [Example 53, 2-chloro-N-cyclopropyl-N-[2-[2-[4-(3-fluorophenyl)-4-[2-(1-oxido-pyrrolidin-1-ium-1-yl)-ethoxy]-piperidin-1-yl]-2-oxo-ethoxy]-ethyl]-6-methyl-benzenesulfonic acid amide]: the values for the inhibition at 10 µM in assay [1] and in assay [2] were 102% and 100%, respectively.

In the case of `COc1cc(C)c(S(=O)(=O)N2CCCC[C@H]2COCC(=O)N2CCC(OCCN3CCCC3)(c3cccc(C(F)(F)F)c3)CC2)c(C)c1` [Example 54, 2-[[(2S)-1-[(4-methoxy-2,6-dimethyl-phenyl)sulfonyl]-piperidin-2-yl]-methoxy]-1-[4-(2-pyrrolidin-1-yl-ethoxy)-4-[3-(trifluoromethyl)phenyl]-piperidin-1-yl]-ethanone], the inhibition at 10 µM in assay [1] was 96%; in assay [2] it was 99%.

`COc1cc(C)c(S(=O)(=O)N2CCCC[C@H]2COCC(=O)N2CCCC(OCCN3CCCC3)(c3cccnc3)CC2)c(C)c1` (stereo partly drawn) [Example 55, 2-[[(2S)-1-[(4-methoxy-2,6-dimethyl-phenyl)sulfonyl]-piperidin-2-yl]-methoxy]-1-[4-pyridin-3-yl-4-(2-pyrrolidin-1-yl-ethoxy)-azepan-1-yl]-ethanone]: the inhibition at 10 µM is 103% in assay [1] and 100% in assay [2].

As for `COc1cc(C)c(S(=O)(=O)N2CCCC[C@H]2COCC(=O)N2CCC(OCCN3CCCC3)(c3cccc(Cl)c3)CC2)c(C)c1` [Example 56, 1-[4-(3-chlorophenyl)-4-(2-pyrrolidin-1-yl-ethoxy)-piperidin-1-yl]-2-[[(2S)-1-[(4-methoxy-2,6-dimethyl-phenyl)sulfonyl]-piperidin-2-yl]-methoxy]-ethanone], the inhibition at 10 µM is 100% in assay [1] and 99% in assay [2].

Take `COc1cc(C)c(S(=O)(=O)N2CCCC[C@H]2COCC(=O)N2CCC(OCCN3CCCC3)(c3ccncc3)CC2)c(C)c1` [Example 57, 2-[[(2S)-1-[(4-methoxy-2,6-dimethyl-phenyl)sulfonyl]-piperidin-2-yl]-methoxy]-1-[4-pyridin-4-yl-4-(2-pyrrolidin-1-yl-ethoxy)-piperidin-1-yl]-ethanone]: the inhibition at 10 µM in assay [1] was 103%; in assay [2], 100%.

With `COc1cc(C)c(S(=O)(=O)N(CCOCC(=O)N2CCC(OCC[N+]3(C)CCCC3)(c3cccnc3)CC2)C2CC2)c(C)c1` [Example 58, N-cyclopropyl-4-methoxy-2,6-dimethyl-N-[2-[2-[4-[2-(1-methyl-pyrrolidin-1-ium-1-yl)-ethoxy]-4-pyridin-3-yl-piperidin-1-yl]-2-oxo-ethoxy]-ethyl]-benzenesulfonic acid amide iodide], the figures for the inhibition at 10 µM in assay [1] and in assay [2] were 104% and 100%, respectively.

Consider `COc1cc(C)c(S(=O)(=O)N2CCCC[C@H]2COCC(=O)N2CCC(OCCn3cncn3)(c3cccnc3)CC2)c(C)c1` [Example 59, 2-[[(2S)-1-[(4-methoxy-2,6-dimethyl-phenyl)sulfonyl]-piperidin-2-yl]-methoxy]-1-[4-pyridin-3-yl-4-[2-(1H-[1,2,4]triazol-1-yl)-ethoxy]-piperidin-1-yl]-ethanone], for which the inhibition at 10 µM in assay [1] turned out to be 102%; in assay [2], 100%.

`COc1cc(C)c(S(=O)(=O)N2CCCC[C@H]2COCC(=O)N2CCC(OCCn3ccnc3)(c3cccnc3)CC2)c(C)c1` [Example 60, 1-[4-[2-(1H-imidazol-1-yl)-ethoxy]-4-pyridin-3-yl-piperidin-1-yl]-2-[[(2S)-1-[(4-methoxy-2,6-dimethyl-phenyl)sulfonyl]-piperidin-2-yl]-methoxy]-ethanone]: the inhibition at 10 µM in assay [1] was 102%; in assay [2] it was 100%.

`COc1cc(C)c(S(=O)(=O)N2CCCC[C@H]2COCC(=O)N2CCC(OCCN3CCC3)(c3cccnc3)CC2)c(C)c1` [Example 61, 1-[4-[2-(azetidin-1-yl)-ethoxy]-4-pyridin-3-yl-piperidin-1-yl]-2-[[(2S)-1-[(4-methoxy-2,6-dimethyl-phenyl)sulfonyl]-piperidin-2-yl]-methoxy]-ethanone]: the figures for the inhibition at 10 µM in assay [1] and in assay [2] were 101% and 100%, respectively.

In the case of `Cc1cccc(Cl)c1S(=O)(=O)N(CCOCC(=O)N1CCC(OCCN2CCCC2)(c2cccc(F)c2)CC1)C1CC1` [Example 62, 2-chloro-N-cyclopropyl-N-[2-[2-[4-(3-fluorophenyl)-4-(2-pyrrolidin-1-yl-ethoxy)-piperidin-1-yl]-2-oxo-ethoxy]-ethyl]-6-methyl-benzenesulfonic acid amide], the inhibition at 10 µM in assay [1] came out at 102%; in assay [2], 100%.

Take `COc1cc(C)c(S(=O)(=O)N(C)CCOCC(=O)N2CCC(OCCN3CCCC3)(c3cccnc3)CC2)c(C)c1` [Example 80, 4-methoxy-N,2,6-trimethyl-N-[2-[2-oxo-2-[4-pyridin-3-yl-4-(2-pyrrolidin-1-yl-ethoxy)-piperidin-1-yl]-ethoxy]-ethyl]-benzenesulfonic acid amide]: the “B1R antagonism, rat [10 μM] % inhibition” value in assay [1] (10 µM) is given as 102%. The “B1R antagonism, human [10 μM] % inhibition” value in assay [2] came out at 100%.

With `COc1cc(C)c(S(=O)(=O)N(C)CCOCC(=O)N2CCC(OCCN3CCCC3)(c3cccc(F)c3)CC2)c(C)c1` [Example 81, N-[2-[2-[4-(3-fluorophenyl)-4-(2-pyrrolidin-1-yl-ethoxy)-piperidin-1-yl]-2-oxo-ethoxy]-ethyl]-4-methoxy-N,2,6-trimethyl-benzenesulfonic acid amide], the inhibition at 10 µM came to 97% in assay [1] and 100% in assay [2].

Take `COc1cc(C)c(S(=O)(=O)N2CCCCC2COCC(=O)N2CCC(OCCN3CCCC3)(c3cccnc3)CC2)c(C)c1` (stereo not drawn) [Example 82, 2-[[1-[(4-methoxy-2,6-dimethyl-phenyl)sulfonyl]-piperidin-2-yl]-methoxy]-1-[4-pyridin-3-yl-4-(2-pyrrolidin-1-yl-ethoxy)-piperidin-1-yl]-ethanone]: in assay [1], the “B1R antagonism, rat [10 μM] % inhibition” value is 102%. In addition, in assay [2], the “B1R antagonism, human [10 μM] % inhibition” value came out at 100%.

For the compound `COc1cc(C)c(S(=O)(=O)N2CCCCC2COCC(=O)N2CCC(OCCN3CCCC3)(c3cccc(F)c3)CC2)c(C)c1` (stereo not drawn) [Example 83, 1-[4-(3-fluorophenyl)-4-(2-pyrrolidin-1-yl-ethoxy)-piperidin-1-yl]-2-[[1-[(4-methoxy-2,6-dimethyl-phenyl)sulfonyl]-piperidin-2-yl]-methoxy]-ethanone], the results for the inhibition at 10 µM in assay [1] and in assay [2] were 99% and 100%, respectively.

Take `COc1cc(C)c(S(=O)(=O)N2CCCCC2COCC(=O)N2CCC(OCCN3CCCC3)(c3ccncc3)CC2)c(C)c1` (stereo not drawn) [Example 84, 2-[[1-[(4-methoxy-2,6-dimethyl-phenyl)sulfonyl]-piperidin-2-yl]-methoxy]-1-[4-pyridin-4-yl-4-(2-pyrrolidin-1-yl-ethoxy)-piperidin-1-yl]-ethanone]: the inhibition at 10 µM in assay [1] is 103%; in assay [2] it was 100%.

For `Cc1cccc(Cl)c1S(=O)(=O)N1CCCCC1CCCC(=O)N1CCC(OCCN2CCCC2)(c2cccc(F)c2)CC1` (stereo not drawn) [Example 85, 4-[1-[(2-chloro-6-methyl-phenyl)sulfonyl]-piperidin-2-yl]-1-[4-(3-fluorophenyl)-4-(2-pyrrolidin-1-yl-ethoxy)-piperidin-1-yl]-butan-1-one], the results for the inhibition at 10 µM in assay [1] and in assay [2] were 98% and 100%, respectively.

`COc1cc(C)c(S(=O)(=O)N2CCCCC2CCCC(=O)N2CCC(OCCN3CCCC3)(c3cccnc3)CC2)c(C)c1` (stereo not drawn) [Example 87, 4-[1-[(4-methoxy-2,6-dimethyl-phenyl)sulfonyl]-piperidin-2-yl]-1-[4-pyridin-3-yl-4-(2-pyrrolidin-1-yl-ethoxy)-piperidin-1-yl]-butan-1-one]: the inhibition at 10 µM is 102% in assay [1] and 100% in assay [2].

`COc1cc(C)c(S(=O)(=O)N2CCCCC2CCCC(=O)N2CCC(OCCN3CCCC3)(c3cccc(F)c3)CC2)c(C)c1` (stereo not drawn) [Example 89, 1-[4-(3-fluorophenyl)-4-(2-pyrrolidin-1-yl-ethoxy)-piperidin-1-yl]-4-[1-[(4-methoxy-2,6-dimethyl-phenyl)sulfonyl]-piperidin-2-yl]-butan-1-one]: the inhibition at 10 µM turned out to be 99% in assay [1] and 100% in assay [2].

Broadly, the inhibition is the relative decrease from the control value, in per cent.
